This note sets out measurements from ChEMBL document CHEMBL1153495, “A highly sensitive probe detecting low pH area of HeLa cells based on rhodamine B modified beta-cyclodextrins” (Bioorg Med Chem, 2009).

Molecules are shown by their SMILES. Activity calls are given as the source filed them. The calls are words filed in the database; no cut-off is given here.

In data set [1] the test system is HeLa. Put plainly: Cytotoxicity against human HeLa cells up to 1000 uM after 48 hrs by MTT assay. Format: functional, cell-based.
For data set [2], the system named is HeLa. Nature of the data set: Drug uptake in human HeLa cells assessed as staining capability after 5 hrs by fluorescence microscopy. Format: ADME, cell-based.
In another data set the test system is Jurkat. Put plainly: Cytotoxicity against human Jurkat cells at 1000 uM after 48 hrs by MTT assay. Type of data set: functional, cell-based. (Tetrazolium assays rely on reduction of a dye to a coloured formazan, in cell work by metabolically active cells.)

Consider `NCCNC[C@H]1O[C@@H]2O[C@H]3[C@H](O)[C@@H](O)[C@@H](O[C@@H]4[C@@H](O)[C@H](O)[C@H](O[C@@H]5[C@@H](O)[C@H](O)[C@H](O[C@@H]6[C@@H](O)[C@H](O)[C@H](O[C@@H]7[C@@H](O)[C@H](O)[C@H](O[C@H]8[C@H](O)[C@@H](O)[C@@H](O[C@H]1[C@H](O)[C@H]2O)O[C@@H]8CO)O[C@H]7CO)O[C@H]6CO)O[C@H]5CO)O[C@H]4CO)O[C@@H]3CO`, for which the result in the data set with HeLa [1] was inactive.

Consider `CCN(CC)c1ccc2c(-c3ccccc3C(=O)O)c3ccc(=[N+](CC)CC)cc-3oc2c1` [RHODAMINE B], for which the Activity entry in the data set with HeLa [2] was “Not Active”.

In the case of `CCN(CC)c1ccc2c(-c3ccccc3C(=O)NCCNCCNCCNCCNC[C@H]3O[C@@H]4O[C@H]5[C@H](O)[C@@H](O)[C@@H](O[C@@H]6[C@@H](O)[C@H](O)[C@H](O[C@@H]7[C@@H](O)[C@H](O)[C@H](O[C@@H]8[C@@H](O)[C@H](O)[C@H](O[C@@H]9[C@@H](O)[C@H](O)[C@H](O[C@H]%10[C@H](O)[C@@H](O)[C@@H](O[C@H]3[C@H](O)[C@H]4O)O[C@@H]%10CO)O[C@H]9CO)O[C@H]8CO)O[C@H]7CO)O[C@H]6CO)O[C@@H]5CO)c3ccc(=[N+](CC)CC)cc-3oc2c1.[Cl-]`, the Drug uptake in the data set on HeLa [2] was 66.6 µM.

With `NCCNCCNCCNCCNC[C@H]1O[C@@H]2O[C@H]3[C@H](O)[C@@H](O)[C@@H](O[C@@H]4[C@@H](O)[C@H](O)[C@H](O[C@@H]5[C@@H](O)[C@H](O)[C@H](O[C@@H]6[C@@H](O)[C@H](O)[C@H](O[C@@H]7[C@@H](O)[C@H](O)[C@H](O[C@H]8[C@H](O)[C@@H](O)[C@@H](O[C@H]1[C@H](O)[C@H]2O)O[C@@H]8CO)O[C@H]7CO)O[C@H]6CO)O[C@H]5CO)O[C@H]4CO)O[C@@H]3CO`, in the data set with Jurkat, the outcome was Active. The outcome with HeLa [1] was inactive.

As to `OC[C@H]1O[C@@H]2O[C@H]3[C@H](O)[C@@H](O)[C@@H](O[C@H]4[C@H](O)[C@@H](O)[C@@H](O[C@H]5[C@H](O)[C@@H](O)[C@@H](O[C@H]6[C@H](O)[C@@H](O)[C@@H](O[C@H]7[C@H](O)[C@@H](O)[C@@H](O[C@H]8[C@H](O)[C@@H](O)[C@@H](O[C@H]1[C@H](O)[C@H]2O)O[C@@H]8CO)O[C@@H]7CO)O[C@@H]6CO)O[C@@H]5CO)O[C@@H]4CO)O[C@@H]3CO`, the outcome in the data set on HeLa [1] was inactive.
